Assays:
ERα [1] = biological target: T1, ERα (Homo sapiens, UniProt P03372); assay: 3XEREluc reporter assay with ERα specific ligand in Ishikawa cells; format: cell-based; conditions: PELP1-transfected Ishikawa cells treated with PPT; FIG. 7C
T1 sequence (P03372 1-595): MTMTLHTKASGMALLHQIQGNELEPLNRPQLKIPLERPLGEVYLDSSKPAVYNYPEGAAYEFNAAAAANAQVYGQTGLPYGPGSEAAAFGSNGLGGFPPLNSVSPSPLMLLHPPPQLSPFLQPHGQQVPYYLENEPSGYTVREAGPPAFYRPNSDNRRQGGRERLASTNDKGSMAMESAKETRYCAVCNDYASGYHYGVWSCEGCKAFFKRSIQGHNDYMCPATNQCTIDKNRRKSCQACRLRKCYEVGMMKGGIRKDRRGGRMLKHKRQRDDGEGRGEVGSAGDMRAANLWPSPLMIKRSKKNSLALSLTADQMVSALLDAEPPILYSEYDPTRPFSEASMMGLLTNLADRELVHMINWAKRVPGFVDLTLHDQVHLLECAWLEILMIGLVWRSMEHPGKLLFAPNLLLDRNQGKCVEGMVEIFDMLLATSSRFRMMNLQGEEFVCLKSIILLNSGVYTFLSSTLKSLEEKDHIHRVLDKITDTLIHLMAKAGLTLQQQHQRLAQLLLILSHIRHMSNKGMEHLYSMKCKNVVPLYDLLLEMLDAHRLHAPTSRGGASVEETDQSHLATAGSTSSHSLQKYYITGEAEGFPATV
Method: (§1) PELP1 is widely expressed in endometrial cancer cells including the widely used endometrial cell lines (Ishikawa and RL 95-2). Control MCF-7 (ERα-positive) and MDA-MB-231 (ERβ-positive) breast cancer cells were also analyzed. (FIG. 7A). […] PELP1 modulation of the transactivation functions of both ER subtypes was performed using ERα or ERβ specific ligands. […] PELP1 also promotes ERβ transcriptional activity in Ishikawa cells when cotransfected with PELP1 (FIG. 7F). Further, endogenous PELP1 effectively interacts with ERβ in Ishikawa cells in a ligand-dependent manner (FIG. 7G).

ERE reporter gene = ERE reporter gene assay in Ishikawa cells with or without PELP1 H1 mutant; format: cell-based, human; conditions: Ishikawa cells transfected with ERE reporter gene, treated or not treated with estrogen; FIG. 1E
Source text: Ishikawa (human endometrial adenocarcinoma) cells were transfected with ERE reporter gene with or without the PELP1 H1 mutant. […]

ERα [2] = biological target: T1, ERα; assay: E2-mediated transactivation with PELP1 mutant lacking C-terminal histone-binding region; conditions: FIG. 9
ERE luciferase reporter = ERE luciferase reporter assay in MCF-7, Ishikawa, HeLa and SaoS2 cells; conditions: E2 10^−9M, 24 hours
Ishikawa cells = assay: Tamoxifen-mediated agonist signaling, reporter gene and cell growth assays, Ishikawa cells; format: cell-based; conditions: Ishikawa cells co-transfected with ERE reporter gene; two days
Source text: (§2) Interference with PELP1 function blocks tamoxifen-mediated agonist activity in endometrial cell lines. Disruption of PELP1 functions was examined to assess interference with tamoxifen-mediated agonist signaling using reporter gene assays and cell growth assays performed in an endometrial cell line (Ishikawa) and a breast cancer cell line (MCF-7). Cancer cells were co-transfected with ERE reporter gene along with either (a) PELP1 cDNA, (b) PELP1 H1 […]), (c) PELP1 mutant cDNA lacking the nuclear localization signal (PELP-NLS mutant), or (d) PELP1-specific siRNA. Cells were stimulated with estrogen for two days and reporter gene activity and cell number were measured.

ER = ER transactivation assay (ERE-luciferase) in ER-positive Ishikawa cells; format: cell-based; conditions: coexpression of PELP1, compared to 6 fold in vector-transfected cells, FIG. 7B
Method: as §1

MCF-7 cells = assay: Tamoxifen-mediated agonist signaling, reporter gene and cell growth assays, MCF-7 cells; format: cell-based; conditions: MCF-7 cells co-transfected with ERE reporter gene; two days
Source text: as §2

ERα mediated transcription (ERα [2]) | Compound | increase of 3XEREluc reporter activity (ERα [1]) | estrogen-mediated transcriptional activation (ERE reporter gene activity) (ERE reporter gene) | ERE luciferase reporter activity (ERE luciferase reporter; FIG. 2) | ERE luciferase reporter activity (ERE luciferase reporter; FIG. 2, listed as Histone H1 mutant) | tamoxifen-mediated agonist activity (Ishikawa cells) | increase of ERE-luciferase (luc) activity in ligand-stimulated cells (ER) [fold] | tamoxifen-mediated agonist activity (MCF-7 cells)
 | CCCc1c(-c2ccc(O)cc2)nn(-c2ccc(O)cc2)c1-c1ccc(O)cc1 [PPT] | 9 times more than the vector-transfected control |  |  |  |  |  | 
blocks ERα mediated transcription | PELP1 H1 mutant: C-terminal deleted PELP1 mutant (aa 1-877), stop codon after amino acid 877, lacks Histone H1 binding domain; SEQ ID NO:14 |  | blocking of estrogen-mediated transcriptional activation | effectively suppressed the estrogen mediated ER coactivation functions | substantially reduced the magnitude of the transcriptional activation by estrogen | disrupted tamoxifen-mediated agonist activity |  | 
 | wild-type PELP1: Proline, glutamic acid and leucine rich protein 1, full length, expressed from PELP1 cDNA; SEQ ID NO:1 |  |  |  |  | augmented tamoxifen-mediated agonist activity | 9 | not in MCF-7 cells

Source: patent US20050095241A1, “Estrogen receptor modulators and uses thereof” (priority 2003, published 2005)
